The source of these data is US20110190235A1, “BORON-CONTAINING SMALL MOLECULES AS ANTIPROTOZOAL AGENTS” (Anacor Pharmaceuticals, Inc., priority 2009, published 2011).

Data set [1] can be described thus: Pharmacokinetic studies in mice (plasma, brain). In kind it is in vivo. Particulars: for CL/F / half-life / Cmax / AUC(0-inf) / AUC(0-t): male, CD-1, mouse; for CL/F: read-out: Oral Clearance Cl/F (converted); for half-life: read-out: t½ (converted); for AUC(0-inf): read-out: Exposure/trapezoid AUC0-inf. The protocol: Male CD-1 mice weighing approximately 25 g received the test article (E19 or 82 or E14 or 69) by either intravenous (IV), oral gavage (OG) or intra-peritoneal (IP) routes. Animals in IV group (6-10 animals, 1-2 per time point) received a single bolus injection of approximately 2 mg/kg of the test article. Animals receiving […], or as 4 repeat doses ([…], 1-2 per time point).
All doses were administered as clear colorless solutions in either: 50% (v/v) PEG400:20% (v/v) ethanol:30% (v/v) carboxymethylcellulose (0.5% w/v in sterile water for injection, WFI), or as in situ sodium salts in 5% (m/v) dextrose:2% (v/v) ethanol in DWI. All dose solutions were delivered at 4 mL/kg. Animals were fasted for at least 4 hours before dosing, and for 2 hours after dosing.
Blood samples and brain tissue were sampled from 1 or 2 animals/timepoint/group immediately before dosing and approximately 0.17, 0.5, 1, 2, 3, 4, 6, 8, 12, 18 and 24 hr after dosing for full pharmacokinetic and tissue analysis, or at 0.5, 2 and 4 hours post dosing to assess early-phase CNS disposition.
Bioanalysis for test article in whole blood, plasma or brain tissue was performed by HPLC with tandem mass spectrometry (LC-MSMS). Whole blood and plasma samples were treated with 3 volumes of either acetonitrile or methanol to precipitate plasma proteins. Treated samples were centrifuged and supernatants removed for analysis. Brain tissues were weighed and homogenized mechanically in the presence of 1 volume of phosphate-buffered saline (PBS). The resulting tissue suspensions were then diluted with a further volume of PBS, and then treated in the same manner as whole blood or plasma.
Extracted samples were assayed for test article by means of LC-MSMS employing reversed-phase chromatography coupled to a triple quadrupole mass spectrometer employing electrospray ionization in the positive ion mode. The analytical column was a Phenomenex Luna 3μ C8 50×2 mm, with an online sample purification step performed on a Phenomenex Synergi 4μ Polar RP 50×2 mm column.
Test articles were eluted using a binary mobile phase gradient comprising 5 mM Ammonium Acetate: 0.1% formic acid in either MeOH or H2O.
Non-compartmental analysis of plasma test article concentration versus time was performed in Microsoft Excel to generate pharmacokinetic parameters including: area under the curve (AUC), clearance (as Cl or Cl/F), volume of distribution (Vdss), half-life (t½), and bioavailability (F).

A short description of data set [2]: Pharmacokinetic studies in rats (plasma, brain, CSF). In kind it is in vivo. The following applies: for half-life: read-out: t½ (converted); for Cmax / AUC(0-t) / AUC(0-inf): normalized to 25 mg/kg; for AUC(0-t): read-out: Exposure/trapezoid AUC0-18; for AUC(0-inf): read-out: Exposure/trapezoid AUC0-inf. The protocol: Male Sprague Dawley rats weighing approximately 200 g received test article (E19 or 82) as a single oral gavage (OG) dose of approximately 25 mg/kg (approximately 10 animals per group).
All doses were administered as clear colorless solutions as in situ sodium salts in 5% (m/v) dextrose:2% (v/v) ethanol in DWI. All dose solutions were delivered at 2 mL/kg. Animals were fasted for at least 4 hours before dosing, and for 2 hours after dosing.
Blood and CSF samples and brain tissue were sampled from 1 animal/timepoint/group immediately before dosing and approximately 0.5, 1, 2, 3, 4, 6, 8, 12, 18 and 24 hr after dosing for full pharmacokinetic (plasma and CSF) and tissue (Brain) analysis.

Data set [3] is described as follows: Kinetic solubility by nephelometric (light scattering) method. Format: physicochemical. The following applies: phosphate buffered saline, aqueous buffer, kinetic from dmso stock, PBS pH 7.4. As for the experimental part:
The kinetic solubilities of compounds were estimated using a nephelometric (light scattering) method. Briefly, compounds were serially diluted in DMSO, followed by dilution in PBS pH 7.4. After incubation, the amount of light scattered by a compound at each concentration was measured. […] At concentrations above the solubility limit, the compound precipitates and the precipitant in the well scatters the light, generating a signal. Higher levels of precipitant in a well scatter more light and produce a stronger signal.
A stock solution of compound (25 mM in DMSO) was prepared, and was serially diluted in DMSO in two-fold increments in a row of a 96 well plate to a lowest concentration of 24 μM. A duplicate plate was prepared by transfer of half of the volume of each well to a new plate. Each well containing DMSO solution of the test compound was then diluted further (1:100) with phosphate buffered saline (pH 7.4) to provide aqueous solutions of compound at the following final concentrations: 250, 125, 62.5, 31.3, 15.6, 7.8, 3.9, 2.0, 1.0, 0.5 and 0.2 μM. All liquid handling stages were performed on a Beckman Coulter Biomek NX Laboratory Automation Workstation. Each compound was diluted and tested in duplicate, providing four separate wells at each test concentration.
The test solutions of compound were incubated at room temperature for 90 minutes and then analyzed using a Thermoskan Ascent nephelometric plate reader. The nephelometer protocol included two steps: first, the plate was shaken for 60 seconds at 1200 rpm, then each well of the plate was read in succession with an 800 ms settling delay between measurements. The total measurement time for a single plate was less than 4 minutes.
The four values (in nephelometric units) obtained for each compound at each concentration were averaged and plotted on a log scale versus concentration.

Data set [4] concerns bloodstream-form trypanosome T. brucei brucei 427 strain. The experiment in a line: Trypanosoma brucei brucei high-throughput in vitro drug sensitivity assay (resazurin). In kind it is cell-based. The following applies: for Selectivity Index (L929 IC50 / T. b. brucei IC50): T. b. brucei vs L929; for IC50: Trypanosoma brucei, 72 hrs incubation. For orientation: The colour change of resazurin is a common sign of viable cells or microbes.

Data set [5] can be described thus: L929 cytotoxicity evaluation (resazurin). Format: cell-based. The following applies: mouse, L929 mouse fibroblast cells; 72 hrs incubation; read-out: Cytotox L-929 IC50. The essentials:
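Mouse L929 fibroblasts (1×10^4/mL seeding, attached overnight) were treated 72 h at 37 °C, 5% CO2 with serially diluted compounds in DMSO in D-MEM/10% FBS. Viability read by resazurin fluorescence after 3–4 h (ex 544/em 590 nm); IC50 from sigmoidal fits of single data points.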

Setting [6] is: 8 mg/kg, brain, oral, mice (Table 3a).
[7] abbreviates: 8 mg/kg, brain, oral, mice, normalized to 25 mg/kg (Table 3a).
Setting [8] is: 8 mg/kg, plasma, oral, mice (Table 3a).
The mark [9] stands for this setting: 8 mg/kg, plasma, oral, mice, normalized to 25 mg/kg (Table 3a).
Setting [10] is: male, Sprague Dawley, rat, CSF, oral, rats.
The mark [11] stands for this setting: male, Sprague Dawley, rat, brain, oral, rats.
Setting [12] is: male, Sprague Dawley, rat, plasma, oral, rats.

Each structure is given as a SMILES string. Values after ≈ are worked out from the molar mass of the structure shown. Read-outs that look alike come from different tables or passages of the source.

Regarding `O=C(Nc1ccc2c(c1)B(O)OC2)c1ccc(F)cc1Cl` [E14, 2-Chloro-4-fluoro-N-(1-hydroxy-1,3-dihydro-benzo[c][1,2]oxaborol-6-yl)-benzamide], the CL/F is 134 mL/min/kg in data set [1] (setting [6]) and 28.8 mL/min/kg in data set [1] (setting [8]). Also, the half-life in data set [1] (setting [6]) was 1.6 h; in data set [1] (setting [8]), 2.97 h. Besides, the Cmax in data set [1] (setting [7]) worked out at 2440 ng/mL; in data set [1] (setting [9]) it was 3590 ng/mL. Besides, the figures for the AUC(0-inf) in data set [1] (setting [7]) and in data set [1] (setting [9]) were 3150 ng·h/mL and 15200 ng·h/mL, respectively. Moreover, the AUC(0-t) in data set [1] (8 mg/kg, brain, oral, mice, normalized to 25 mg/kg (Table 3a), read-out: Exposure/trapezoid AUC0-last) was determined as 3120 ng·h/mL; in data set [1] (8 mg/kg, plasma, oral, mice, normalized to 25 mg/kg (Table 3a), read-out: Exposure/trapezoid AUC0-last), 14400 ng·h/mL.
As for `O=C(Nc1ccc2c(c1)B(O)OC2)c1ccc(F)cc1C(F)(F)F` [E19, 4-Fluoro-N-(1-hydroxy-1,3-dihydro-benzo[c][1,2]oxaborol-6-yl)-2-trifluoromethyl-benzamide], the half-life is 3.1 h in data set [2] (male, Sprague Dawley, rat, 25 mg/kg, CSF, oral, rats); 2.6 h in data set [2] (male, Sprague Dawley, rat, 25 mg/kg, brain, oral, rats); 8.1 h in data set [2] (male, Sprague Dawley, rat, 25 mg/kg, plasma, oral, rats); 2.3 h in data set [1] (25 mg/kg, brain, oral, mice); 17.1 h in data set [1] (25 mg/kg, plasma, oral, mice). Further, the CL/F in data set [2] (male, Sprague Dawley, rat, 25 mg/kg, plasma, oral, rats, read-out: Oral Clearance Cl/F (converted)) was 4.35 mL/min/kg; in data set [1] (25 mg/kg, plasma, oral, mice), 3.83 mL/min/kg. In addition, the Cmax in data set [2] (setting [10]) was found to be 1200 ng/mL; in data set [2] (setting [11]), 2500 ng/mL; in data set [2] (setting [12]) it was 12300 ng/mL; in data set [1] (brain, oral, mice, normalized to 25 mg/kg (nominal 25 mg/kg)), 6100 ng/mL; in data set [1] (plasma, oral, mice, normalized to 25 mg/kg (nominal 25 mg/kg)), 10000 ng/mL. Also, the AUC(0-t) was found to be 3800 ng·h/mL in data set [2] (setting [10]); 12700 ng·h/mL in data set [2] (setting [11]); 98300 ng·h/mL in data set [2] (setting [12]); 13100 ng·h/mL in data set [1] (brain, oral, mice, normalized to 25 mg/kg, read-out: Exposure/trapezoid AUC0-18); 70600 ng·h/mL in data set [1] (plasma, oral, mice, normalized to 25 mg/kg, read-out: Exposure/trapezoid AUC0-18). Besides, the AUC(0-inf) was 3900 ng·h/mL in data set [2] (setting [10]); 12700 ng·h/mL in data set [2] (setting [11]); 102000 ng·h/mL in data set [2] (setting [12]); 13200 ng·h/mL in data set [1] (brain, oral, mice, normalized to 25 mg/kg); 109000 ng·h/mL in data set [1] (plasma, oral, mice, normalized to 25 mg/kg). For the same compound, the “time levels in brain and CSF are above the in vitro MIC” value in data set [2] (nominal single oral dose of 25 mg/kg to rats) turned out to be 4 h. The “F (% of IV)” value in data set [2] (plasma, oral, rats) is recorded as 123.0%; in data set [1] (plasma, oral, mice), 26%. Further, the “dose proportionality of exposure in plasma, brain and CSF” value in data set [2] (rats) is given as “increase in a generally proportional manner with dose”. In data set [1] (mouse and rat, brain (and CSF)), the “brain concentrations relative to the MIC” value was “decrease rapidly to levels below the MIC within a few hours after dosing”. Besides, the “dose proportionality of brain exposure” value in data set [1] (oral delivery to mice) is “generally dose-proportional increases”. The “dose proportionality of plasma exposure” value in data set [1] (oral delivery to mice) is on record as “greater than proportional at doses above 20 mg/kg”. The “plasma PK when administered to rodents” value in data set [1] (rodents, plasma) is “good exposure (AUC and Cmax), promising bioavailability, prolonged half-life, and low clearance”.
Turning to `Cc1ccc(C(=O)Nc2ccc3c(c2)B(O)OC3C)cc1` (stereo not drawn) [compound 7, N-(1-Hydroxy-3-methyl-1,3-dihydro-benzo[c][1,2]oxaborol-6-yl)-4-methyl-benzamide], in data set [3], the solubility at 90 min turned out to be 100 µM (≈ 28.1 µg/mL). In addition, the “Selectivity Index (L929 IC50 / T. b. brucei IC50)” value in data set [4] turned out to be 137. Also, the IC50 in data set [4] (read-out: T. b. brucei IC50) was 0.146 µM; in data set [4] (read-out: T.b. brucei IC50), 0.041 µg/mL. Besides, the IC50 at 72 h in data set [5] is 5.61 µg/mL (≈ 20 µM).
As for `CCC(C)(C)C(=O)Nc1ccc2c(c1)B(O)OC2(C)C` [compound 132, N-(1-Hydroxy-3,3-dimethyl-1,3-dihydro-benzo[c][1,2]oxaborol-6-yl)-2,2-dimethyl-butyramide], the IC50 in data set [4] (read-out: T.b. brucei IC50) is 3.81 µg/mL. Further, in data set [5], the IC50 at 72 h is above 10 µg/mL.
As to `O=C(Nc1ccc2c(c1)B(O)OC21CC1)c1ccc(F)cc1C(F)(F)F` [compound 133], the “Selectivity Index (L929 IC50 / T. b. brucei IC50)” value in data set [4] was found to be 100. Moreover, the IC50 in data set [4] (read-out: T.b. brucei IC50) turned out to be 0.191 µg/mL. For the same compound, the IC50 at 72 h in data set [5] is above 10 µg/mL.
With `O=C(Nc1ccc2c(c1)B(O)OC21CCCC1)c1ccccc1Cl` [compound 137, 2-Chloro-N-(1-hydroxy-3,3-spirocyclopentyl′-1,3-dihydro-benzo[c][1,2]oxaborol-6-yl)-benzamide], the “Selectivity Index (L929 IC50 / T. b. brucei IC50)” value in data set [4] was above 3. For the same compound, the IC50 worked out at 10.6 µM in data set [4] (read-out: T. b. brucei IC50) and 3.62 µg/mL in data set [4] (read-out: T.b. brucei IC50). In addition, the IC50 at 72 h in data set [5] was above 10 µg/mL.

Usually Cmax stands for the peak of the concentration-time curve. A word on the solubility: it is the concentration that dissolves in the medium under given conditions. Low values mean a poorly soluble substance, high ones a readily soluble substance. In general, IC50 refers to the concentration that inhibits the measured activity by half.
